Laboratory results reported in patent US11414379B2, “SPAK kinase inhibitors as neuroprotective agents” (United States Government as represented by the Department …, priority 2018, dated 2022).

Columns and labels:
[1] = test system: mouse model of ischemic stroke; assay: Infarct volume and hemispheric swelling after transient MCAO; type: in vivo
Text: Under an operating microscope, the left common carotid artery was exposed through a midline incision. […] The ECA was dissected further distally and permanently ligated. The internal carotid artery (ICA) was isolated and carefully separated from the adjacent vagus nerve. A 12 mm length of silicon-coated nylon filament (size 6-0, native diameter 0.11 mm; diameter with coating 0.21+/−0.02 mm; coating length 5-6 mm; Doccol Corporation, Sharon, Mass.) was introduced into the ECA lumen through a puncture. The silk suture around the ECA stump was tightened around the intraluminal nylon suture to prevent bleeding. The nylon suture was then gently advanced from the ECA to the ICA lumen until mild resistance was felt (˜9 mm). For reperfusion, the suture was withdrawn 50 min after MCAO to restore blood flow. Body temperature was maintained for the duration of the experiment between 36.5° C.-37° C. with a small animal heating pad (Kent Scientific).
At 24 hours reperfusion, mice were anesthetized with 5% isoflurane and then decapitated. Coronal brain tissue slices (2 mm) were stained for 20 minutes at 37° C. with 1% 2,3,5-triphenyltetrazolium chloride monohydrate (TTC; Sigma, St Louis, Mo.) in PBS solution. […] The extent of hemispheric swelling was calculated using the following equation: swelling (% contralateral side)=[(volume of ipsilateral hemisphere−volume of contralateral hemisphere)/volume of contralateral hemisphere]×100 (Bhuiyan et al. (2017) Journal of cerebral blood flow and metabolism: official journal of the International Society of Cerebral Blood Flow and Metabolism 37: 2780-2794).
Referring to FIG. 11A, an experimental design of ischemic stroke study is shown. Vehicle or ZT-1a is administered at 3 hrs and 8 hrs post-MCAO.
Referring to FIG. 11B, representative images and quantification of infarct volume and hemispheric swelling in TTC-stained coronal sections of mouse brains 24 hrs post-MCAO are shown. Vehicle (DMSO, 2 ml/kg) or ZT-1a (2.5 or 5.0 mg/kg) were administered with an initial half dose at 3 hrs and the second half dose at 8 hr reperfusion via intra-peritoneal injection (i.p.). Data are mean±SD, n=6-12 per group (male). * p<0.05.

[2] = test system: KCC2 pThr1007 and NKCC1 pThr203/207/212; assay: In vivo pharmacodynamic analysis, brain; set-up: species or system mouse; conditions: naïve brains; 60 minutes after administration
Method: Male C57BL/6j wild-type mice (6 weeks old) were purchased from Charles River Laboratories Edinburgh UK. ZT-1a was dissolved in DMSO (Sigma) solution and administered by subcutaneous injection into wild type male C57BL/6 mice at doses of 0, 3, 10, 30, 50 and 100 mg/kg. 50 mg/kg Closantel (1) was injected as a comparative control. Age-matched SPAK^502A/502A knock-in mice were also used as comparative controls (Zhang et al. (2015) Human molecular genetics 24: 4545-455). Control mice were treated with an equal volume of DMSO solution. One hour after administration, mice were sacrificed by cervical dislocation, and kidney and brain tissues were rapidly dissected and snap-frozen in liquid nitrogen. The SPAK^502A/502A knock-in mouse was established and maintained under specific pathogen-free conditions at the University of Dundee (UK) as described in our recent study.
Referring to FIG. 9A and FIG. 9B, in vivo pharmacodynamic analysis of ZT-1a was performed. ZT-1a and Closantel were administered via subcutaneous injection at the indicated doses. Brain (FIG. 9A) and kidney (FIG. 9B) tissues were collected, and endogenous proteins were subjected to immunoblot probed with SPAK, NKCC1 and NCC phospho-specific antibodies.

[3] = molecular target: T1, human SPAK 452-547(end) (Homo sapiens, UniProt Q9UEW8); assay: Fluorescence polarization, SPAK-WNK peptide interaction; type: binding; conditions: for IC50: Lumio-Green-labelled WNK peptide 10 nM, read-out: IC50, concentration-dependent decrease in fluorescence polarization; for disruption of binding between WNK4 and the SPAK CCT domain: fluorescence polarization
T1 construct: Purified human SPAK 452-547(end); made in house; host or cells: E. coli
Method: Fluorescence polarization measurements were performed at 25° C. with purified SPAK proteins in 50 mM Tris/HCl, pH 7.5, 150 mM NaCl and 2 mM DTT. The concentration of SPAK proteins was determined by measuring their absorbance at 280 nm and calculated using the molar absorption coefficient determined by the ProtParam Online tool (Gasteiger et al., 2001). All peptides ([…] [EP4543] and […] [EP4544]; SEQ ID NO:2 and SEQ ID NO:3, respectively) contained an N-terminal linker required for conjugating to the Lumio Green fluorophore ([…]; SEQ ID NO:4) and were initially re-suspended in 50 mM ammonium bicarbonate, pH 8. Peptide labelling was achieved by incubating […] of each peptide in a 0.5 ml reaction mixture of 20 μM Lumio Green in 25 mM Tris/HCl, pH 7.5, 200 mM NaCl and 5 mM 2-mercaptoethanol. Reactions were left to proceed in the dark for 2 h. The peptides were dialysed for 4 h into 25 mM Tris/HCl, pH 7.5, 200 mM NaCl and 5 mM 2-mercaptoethanol using a Micro DispoDIALYZER with a 100 Da molecular-mass cut-off (Harvard Apparatus), and then for another 12 h with changed buffer. For fluorescence polarization, mixtures were set up containing the indicated concentration of protein, 10 nM Lumio-Green-labelled peptide in a final volume of 30 μl. All individual bindings were performed in duplicate with at least 12 data points per curve. Fluorescence polarization was measured using a BMG PheraStar plate reader, with an excitation wavelength of 485 nm and an emission wavelength of 538 nm, and measurements were corrected to the fluorescent probe alone. Data analysis and graphing were then performed in GraphPad Prism7; a one-site specific binding model was assumed (Y=Bmax*X/[Kd+X]) and the fitted dissociation constant computed. All experimental bindings were repeated at least twice.
Referring to FIG. 5A, analysis of SPAK-WNK interaction by fluorescence polarization is shown. Purified human SPAK 452-547(end) and human SPAK 452-547 with L491A (equivalent to L502 in mouse) were diluted appropriately and mixed at a 1:1 volume ratio with 20 nM Lumino-Green-labelled WNK peptide (RFQV or AFQV) to the concentration stated in the Figure (with the final peptide concentration consistent at 10 nM), and fluorescent polarization measurements were made. Binding curves, assuming one-site-specific binding, were then generated with Prism6 using milli-polarization (mP) units.

| SMILES | infarct volume ([1]; 5 mg/kg i.p., post-stroke from 3 hr reperfusion, 24 hrs post-MCAO, mean±SD) [mm^3] | decrease of infarct volume ([1]; 5 mg/kg i.p., post-stroke from 3 hr reperfusion, 24 hrs post-MCAO, vs vehicle) [%] | reduction of cerebral hemispheric swelling ([1]; 2.5 or 5 mg/kg, 24 hrs post-MCAO, vs vehicle) [%] | effect on KCC2 (pThr1007) or NKCC1 (pThr203/207/212) phosphorylation [2] | IC50 [3] [µM] | disruption of binding between WNK4 and the SPAK CCT domain [3] | effect on infarct volume and hemispheric swelling ([1]; 0.1 mg/kg dose) | effect on infarct volume and hemispheric swelling ([1]; 1.0 or 2.5 mg/kg at 3 hr and at 8 hr reperfusion) |
| --- | --- | --- | --- | --- | --- | --- | --- | --- |
| Cc1cc(C(C#N)c2ccc(Cl)cc2)c(Cl)cc1NC(=O)c1cc(Cl)ccc1O (centres unmarked) [ZT-1a, 5-chloro-N-(5-chloro-4-((4-chlorophenyl)(cyano)methyl)-2-methylphenyl)-2-hydroxy-benzamide] | 50.4±27.0 | ~35 | 36 to 50 | neither drug reduced | 326 | did not disrupt | – | – |
| Cc1cc(C(C#N)c2ccc(Cl)cc2)c(Cl)cc1NC(=O)c1cc(I)cc(I)c1O (centres unmarked) [Closantel] | – | – | – | neither drug reduced | > 1000 | did not disrupt | ineffective | dose-dependently reduced |
